In US20060093634A1, “Personal care compositions and concentrates for making the same” (Lonza Inc., priority 2004, published 2006):

Assay: Skin moisture after application of moisturizing compositions (Corneometer)
Assay type: in vivo
Conditions: applied to skin
Protocol: Glycerol monostearate (GMS) cream moisturizing compositions containing 2% glycerin (Sample 1), 1% sodium erythorbate (Sample 2), 1% δ-gluconolactone (Sample 3), or 2% of a biodegradation prevention mixture containing 75% (by weight) sodium benzoate and 25% (by weight) sodium erythorbate were tested as follows.
The GMS cream was prepared as follows. Polyoxyethylene glyceryl monostearate, glyceryl monostearate, cetearyl alcohol, and myristyl propionate were mixed and heated to 60° C. in a first container. In four separate containers, glycerin, sodium erythorbate, δ-gluconolactone, or the aforementioned biodegradation prevention mixture were mixed with sterile deionized water and heated to 60° C. The solution in the first container was poured into each container containing glycerin, sodium erythorbate, δ-gluconolactone, or the biodegradation prevention mixture to produce the desired concentrations, e.g., 2% glycerin (w/w) (Sample 1), 1% sodium erythorbate (w/w) (Sample 2), 1% δ-gluconolactone (w/w) (Sample 3), or 2% biodegradation prevention mixture (w/w) (Sample 4). The containers were maintained at 60° C. for 10 minutes, and then allowed to cool. The pH of the solution was adjusted to pH 7 with sodium hydroxide to yield the GMS cream.
The moisturizing compositions were applied once to skin and skin moisture measurements were taken over a 7 day period following administration. […]

Compound | Skin moisturization compared with known moisturizers such as glycerin
O=C1O[C@H](CO)[C@@H](O)[C@H](O)[C@H]1O [δ-gluconolactone] | moisturize skin more effectively than many known moisturizers
O=C1O[C@H]([C@H](O)CO)C([O-])=C1O.[Na+] [sodium erythorbate] | moisturize skin more effectively than many known moisturizers
